Test results: patent US8927717B1, “Thiochromeno[2,3-c]quinolin-12-one derivatives, preparation method and application thereof” (National Defense Medical Center, priority 2014, dated 2015)

How the values were obtained:
Format in all cases: cell-based
[1] = system: T-47D
[2] = system: OVCAR-8
[3] = system: HOP-62
[4] = system: MOLT-4
[5] = system: MCF7
[6] = system: ACHN
[7] = system: MDA-MB-435
[8] = system: TK-10
[9] = system: RXF 393; details: Renal cancer; 10^−5 molar; 48 hours; SRB
[10] = system: KM12; test: cells
[11] = system: 60 cancer cell lines; test: NCI 60-cell screen, SRB, whole panel (mean, delta, range)
[12] = system: NCI-H226
[13] = system: HT29
[14] = system: NCI-H460
[15] = system: SF-268
[16] = system: NCI/ADR-RES
[17] = system: LOX IMVI; details: LOX IMVI, five dose
[18] = system: SNB-19
[19] = system: U251; details: U251, five dose
[20] = system: SK-MEL-5
[21] = system: MDA-MB-486
[22] = system: 786-0
[23] = system: PC-3
[24] = system: SW-620
[25] = system: SR
[26] = system: HL-60(TB); details: Leukemia; 10^−5 molar; 48 hours; SRB
[27] = system: COLO 205
[28] = system: HCT-116
[29] = system: MALME-3M
[30] = system: MDA-MB-231/ATCC
[31] = system: NCI-H23
[32] = system: K-562
[33] = system: SK-MEL-28
[34] = system: M14
[35] = system: NCI-H522
[36] = system: A498
[37] = system: RPMI-8226
[38] = system: UACC-62
[39] = system: SK-OV-3
[40] = Breast cancer, 10^−5 molar, 48 hours, SRB
[41] = Ovarian cancer, 10^−5 molar, 48 hours, SRB
[42] = Non-small cell lung cancer, 10^−5 molar, 48 hours, SRB
[43] = Leukemia, 10^−5 molar, 48 hours, SRB
[44] = Renal cancer, 10^−5 molar, 48 hours, SRB
[45] = Melanoma, 10^−5 molar, 48 hours, SRB
[46] = Colon cancer, 10^−5 molar, 48 hours, SRB
[47] = Homo sapiens, HT-29, HT29, five dose
[48] = Homo sapiens, NCI-H460, five dose
[49] = CNS cancer, 10^−5 molar, 48 hours, SRB
[50] = Homo sapiens, SK-MEL-5, five dose
[51] = Homo sapiens, SW-620, five dose
[52] = Homo sapiens, HCT-116, five dose
[53] = Homo sapiens, MALME-3M, five dose
[54] = Homo sapiens, NCI-H23, five dose
[55] = Homo sapiens, SK-MEL-28, five dose
[56] = Homo sapiens, NCI-H522, five dose

NCCNc1nc2ccccc2c2c(=O)c3cc(Cl)ccc3sc12 [Compound N14, 6-((2-Aminoethyl)amino)-10-chloro-12H-thiochromeno[2,3-c]quinolin-12-one]
Growth percent T-47D [1, 40]: −82.45%
GI50 ([1]; Homo sapiens, T47D, T-47D, five dose): 1.56 µM
TGI ([1]; T-47D, five dose): 3.37 µM
GI50 ([2]; Homo sapiens, OVCAR-8, five dose): 1.89 µM
TGI ([2]; OVCAR-8, five dose): 4.12 µM
Growth percent OVCAR-8 [2, 41]: −74.59%
TGI ([3]; HOP-62, five dose): 2.92 µM
GI50 ([3]; Homo sapiens, HOP-62, five dose): 1.47 µM
Growth percent HOP-62 [3, 42]: −97.40%
GI50 ([4]; Homo sapiens, MOLT-4, five dose): 2.02 µM
CC50 ([4]; Homo sapiens, MOLT-4, five dose, read-out: LC50 (the source's name)): 7.77 µM
Growth percent MOLT-4 [4, 43]: −58.82%
TGI ([4]; MOLT-4, five dose): 3.96 µM
Growth percent MCF7 (Table 2: MCF) [5, 40]: −98.38%
GI50 ([5]; Homo sapiens, MCF7, five dose): 1.28 µM
TGI ([5]; MCF7, five dose): 2.81 µM
TGI ([6]; ACHN, five dose): 2.76 µM
GI50 ([6]; Homo sapiens, ACHN, five dose): 1.44 µM
CC50 ([6]; Homo sapiens, ACHN, five dose, read-out: LC50 (the source's name)): 5.29 µM
Growth percent ACHN [6, 44]: −92.31%
GI50 ([7]; Homo sapiens, MDA-MB-435, five dose): 1.82 µM
TGI ([7]; MDA-MB-435, five dose): 3.59 µM
Growth percent MDA-MB-435 [7, 45]: −85.39%
GI50 ([8]; Homo sapiens, TK-10, five dose): 2.06 µM
CC50 ([8]; Homo sapiens, TK-10, five dose, read-out: LC50 (the source's name)): 6.21 µM
Growth percent TK-10 [8, 44]: −28.04%
TGI ([8]; TK-10, five dose): 3.58 µM
Growth percent RXF 393 [9]: −87.22%
Growth percent KM12 [10, 46]: −85.99%
GI50 ([10]; Homo sapiens, KM12, five dose): 1.67 µM
LC50 ([10]; Homo sapiens, KM12, five dose): 5.79 µM
TGI ([10]; KM12, five dose): 3.11 µM
GI50 ([11]; 60 cell, mean over panel, five dose): 1.66 µM
CC50 ([11]; 60 cell, mean over panel, five dose, read-out: LC50, Mean): 7.94 µM
Growth percent, Delta ([11]; delta over the cell panel, 10^−5 molar, 48 hours, SRB): 46.49%
TGI, Mean ([11]; mean over panel, five dose): 3.39 µM
Growth percent, Mean ([11]; mean over the cell panel, 10^−5 molar, 48 hours, SRB): −51.89%
Growth percent, Range ([11]; range over the cell panel, 10^−5 molar, 48 hours, SRB): 176.87%
GI50 ([12]; Homo sapiens, NCI-H226, five dose): 1.36 µM
TGI ([12]; NCI-H226, five dose): 2.95 µM
Growth percent NCI-H226 [12, 42]: 28.55%
Growth percent HT29 [13, 46]: −83.30%
TGI ([13]; HT29, five dose): 3.29 µM
GI50 [13, 47]: 1.78 µM
LC50 (concentration killing 50% of cells) [13, 47]: 6.09 µM
GI50 [14, 48]: 1.69 µM
LC50 [14, 48]: 7.05 µM
TGI ([14]; NCI-H460, five dose): 3.45 µM
Growth percent NCI-H460 [14, 42]: −62.39%
Growth percent SF-268 [15, 49]: −67.65%
GI50 ([15]; Homo sapiens, SF-268, five dose): 1.59 µM
CC50 ([15]; Homo sapiens, SF-268, five dose, read-out: LC50 (the source's name)): 6.55 µM
TGI ([15]; SF-268, five dose): 3.23 µM
GI50 ([16]; Homo sapiens, NCI/ADR-RES, five dose): 1.88 µM
TGI ([16]; NCI/ADR-RES, five dose): 3.67 µM
Growth percent NCI/ADR-RES [16, 41]: −42.68%
GI50 ([17]; Homo sapiens): 1.68 µM
LC50 ([17]; Homo sapiens): 5.96 µM
TGI [17]: 3.16 µM
Growth percent SNB-19 [18, 49]: 40.06%
GI50 ([18]; Homo sapiens, SNB-19, five dose): 1.65 µM
TGI ([18]; SNB-19, five dose): 3.18 µM
GI50 ([19]; Homo sapiens, U-251): 1.63 µM
LC50 ([19]; Homo sapiens, U-251): 5.78 µM
TGI [19]: 3.07 µM
GI50 [20, 50]: 1.51 µM
LC50 [20, 50]: 5.44 µM
Growth percent SK-MEL-5 [20, 45]: 68.64%
TGI ([20]; SK-MEL-5, five dose): 2.87 µM
GI50 ([21]; 60 cell, MDA-MB-486, five dose): 1.27 µM
CC50 ([21]; 60 cell, MDA-MB-486, five dose, read-out: LC50 (the source's name)): 6.15 µM
Growth percent MDA-MB-486 [21, 40]: −62.13%
TGI ([21]; MDA-MB-486, five dose): 2.80 µM
TGI ([22]; 786-0, five dose): 3.20 µM
GI50 ([22]; Homo sapiens, 786-0, five dose): 1.76 µM
CC50 ([22]; Homo sapiens, 786-0, five dose, read-out: LC50 (the source's name)): 5.81 µM
Growth percent 786-0 [22, 44]: −57.40%
GI50 ([23]; Homo sapiens, PC-3, five dose): 1.55 µM
CC50 ([23]; Homo sapiens, PC-3, five dose, read-out: LC50 (the source's name)): 5.76 µM
TGI ([23]; PC-3, five dose): 2.99 µM
Growth percent PC-3 ([23]; Prostate cancer, 10^−5 molar, 48 hours, SRB): −97.71%
Growth percent SW-620 [24, 46]: −66.88%
GI50 [24, 51]: 1.67 µM
LC50 [24, 51]: 7.02 µM
TGI ([24]; SW-620, five dose): 3.42 µM
GI50 ([25]; Homo sapiens, SR, five dose): 1.81 µM
LC50 (50% lethal concentration) ([25]; Homo sapiens, SR, five dose): > 100 µM
Growth percent SR [25, 43]: −51.67%
TGI ([25]; SR, five dose): 4.30 µM
Growth percent HL-60(TB) [26]: −47.50%
TGI ([27]; COLO 205, five dose): 3.57 µM
Growth percent COLO 205 [27, 46]: −87.22%
GI50 ([27]; Homo sapiens, COLO 205, five dose): 1.73 µM
Growth percent HCT-116 [28, 46]: −48.19%
TGI ([28]; HCT-116, five dose): 2.99 µM
GI50 [28, 52]: 1.63 µM
LC50 (concentration killing 50% of cells) [28, 52]: 5.47 µM
GI50 [29, 53]: 1.98 µM
LC50 [29, 53]: 7.93 µM
TGI ([29]; MALME-3M, five dose): 3.96 µM
Growth percent MALME-3M [29, 45]: −48.42%
Growth percent MDA-MB-231/ATCC [30, 40]: −84.52%
GI50 ([30]; Homo sapiens, MDA-MB-231/ATCC, five dose): 1.31 µM
CC50 ([30]; Homo sapiens, MDA-MB-231/ATCC, five dose, read-out: LC50 (the source's name)): 5.35 µM
TGI ([30]; MDA-MB-231/ATCC, five dose): 2.65 µM
GI50 [31, 54]: 1.72 µM
LC50 (lethal concentration 50%) [31, 54]: 6.63 µM
TGI ([31]; NCI-H23, five dose): 3.37 µM
Growth percent NCI-H23 [31, 42]: −5.25%
GI50 ([32]; Homo sapiens, K562, K-562, five dose): 1.69 µM
CC50 ([32]; Homo sapiens, K562, K-562, five dose, read-out: LC50 (the source's name)): 7.84 µM
TGI ([32]; K-562, five dose): 3.65 µM
Growth percent K-562 [32, 43]: −57.17%
GI50 [33, 55]: 1.75 µM
LC50 [33, 55]: 5.66 µM
Growth percent SK-MEL-28 [33, 45]: −96.20%
TGI ([33]; SK-MEL-28, five dose): 3.15 µM
GI50 ([34]; Homo sapiens, M14, five dose): 1.83 µM
LC50 ([34]; Homo sapiens, M14, five dose): 6.14 µM
TGI ([34]; M14, five dose): 3.35 µM
Growth percent M14 [34, 45]: −55.62%
GI50 [35, 56]: 1.86 µM
LC50 (concentration causing 50% net cell kill) [35, 56]: 6.92 µM
TGI ([35]; NCI-H522, five dose): 3.59 µM
Growth percent NCI-H522 [35, 42]: −66.59%
TGI ([36]; A498, five dose): 4.99 µM
GI50 ([36]; Homo sapiens, A498, five dose): 1.45 µM
CC50 ([36]; Homo sapiens, A498, five dose, read-out: LC50 (the source's name)): 29.2 µM
Growth percent A498 [36, 44]: 60.29%
GI50 ([37]; Homo sapiens, RPMI-8226, five dose): 2.26 µM
CC50 ([37]; Homo sapiens, RPMI-8226, five dose, read-out: LC50 (the source's name)): 62.3 µM
Growth percent RPMI-8226 [37, 43]: −27.48%
TGI ([37]; RPMI-8226, five dose): 4.92 µM
GI50 ([38]; Homo sapiens, UACC-62, five dose): 1.67 µM
CC50 ([38]; Homo sapiens, UACC-62, five dose, read-out: LC50 (the source's name)): 6.52 µM
Growth percent UACC-62 [38, 45]: −96.67%
TGI ([38]; UACC-62, five dose): 3.30 µM
GI50 ([39]; Homo sapiens, SK-OV-3, five dose): 1.78 µM
CC50 ([39]; Homo sapiens, SK-OV-3, five dose, read-out: LC50 (the source's name)): 6.42 µM
Growth percent SK-OV-3 [39, 41]: 12.25%
TGI ([39]; SK-OV-3, five dose): 3.38 µM
